In patent US20230201030A1, “DISSOLVABLE MEDICAL DEVICE FOR DRUGS DELIVERY” (Alcon Inc., priority 2021, published 2023):

Test system: pupil
Experiment: Response behavior of phenylephrine (pupil dilation) delivered in the presence/absence of the polymeric film
Assay type: in vivo
Settings: 0.005% phenylephrine with polymeric film vs 2.5% phenylephrine alone
Experimental: In the groups with such treatments, a 0.1-0.2 g lens was applied to the center of the cornea. 1 drop of dilating agent (phenylephrine) of predetermined concentration was applied at t(0). Size of pupil was measured using a pre-measured device for reference and followed up using the same scale.

For CNC[C@H](O)c1cccc(O)c1 [phenylephrine, Phenylephrine], which “reduction of drug load at similar efficacy” value is on record?
The value was 500 fold.
